Test results published in US20210046002A1, “AMELIORATION OF AUTOIMMUNE UVEITIS THROUGH BLOCKADE OF CSF1R” (Massachusetts Eye and Ear Infirmary, priority 2018, published 2021).
“Also recorded” adds a separate entry of the source. Blank lines part the entries; values can stand above or below the compound they belong to.

Legend:
[1] = test system: adherent retinal leukocytes; assay: Lectin labeling of adherent retinal leukocytes; assay type: in vivo, mice; conditions: EAU day 10
Method: The retinal vasculature and adherent leukocytes were imaged by perfusion labeling with fluorescein-isothiocyanate (FITC)-conjugated concanavalin A lectin (conA; Vector Laboratories, Burlingame, Calif.), as described previously with modifications. Briefly, after deep anesthesia, the chest cavity was opened and a 27-gauge cannula was introduced into the left ventricle. The mice were perfused through the left ventricle first using 5 ml of PBS, followed by fixation with 1% paraformaldehyde (5 ml), FITC-conjugated conA (20 μg/ml in PBS, 5 mL), and 5 ml of PBS. The eyes were then fixed in 4% PFA for 15 mins and the retinas were flatmounted. The total number of conA stained adherent leukocytes in the major retinal vessels (venules, arterioles, and collecting vessels) were counted under the direct observation with an epifluorescent microscopy (Axio Observer Z1; Carl Zeiss, Bayern, Germany).

[2] = test system: IRBP-p; assay: Delayed hypersensitivity (ear swelling) against IRBP-p; assay type: in vivo, C57BL/6 mice; conditions: IRBP-immunized animals, day 21
Method: Ag-specific delayed hypersensitivity (DH) was measure as previously described. On day 19 after immunization, mice were injected intradermally with 10 μg/10 μl of IRBP-p suspended in PBS into the pinna of one ear. Ear swelling was measured after 24 and 48 h using a micrometer (Mitutoyo, Tokyo, Japan). DH was measured as the difference in ear thickness before and after challenge. Results were expressed as: specific ear swelling=(24-h measurement−0-h measurement) for test ear−(24-h measurement−0-h measurement) for control ear.

[3] = test system: circulating systemic immune cells; conditions: previous studies [31, 32]; cited from earlier work
[4] = test system: lymph node and spleen cells; assay: Lymphocyte proliferation assay (modified MTT) of lymph node and spleen cells; assay type: cell-based, C57BL/6 mice; conditions: IRBP-immunized animals, lymph nodes and spleens, day 14 and 21
Method: The draining LN and spleens were collected and the cells were suspended at 2×10^5 per 200 μL medium in 96-well flat-bottom plates. Triplicated cells were cultured in the presence of 10 μg/mL IRBP-p, 1 μg/mL Concanavalin A (Con A; Sigma-Aldrich), or medium alone. After incubation for three days, 100 μl of supernatant in the culture medium was collected. Cell proliferation during the last 4 hours of 72 hours cultures was measured by modified MTT assay using Cell Counting Kit-8 (Sigma-Aldrich).

[5] = test system: ICAM-1; assay: Western blot of retinal ICAM-1; assay type: in vivo, mice; conditions: EAU day 10; P<0.01
Method: (§1) Whole retinas were homogenized with a hand homogenizer and briefly sonicated in M-PER® Mammalian Protein Extract Reagent containing Halt Phosphatase Inhibitor Cocktail (both Thermo Scientific), and then ultracentifuged for 15 min at 17,000 g to collect soluble proteins as supernatants. 20 μg of the samples were electrophoresed through 4-15% polyacrylamide gels (Bio-Rad, Hercules, Calif., USA), and transferred onto PVDF membranes. After blocking with 5% nonfat dried milk, the membranes were incubated overnight with a primary antibody at 4° C. The membranes were then incubated for 1 hour at room temperature with a HRP-labeled secondary antibody. The following antibodies were used: rabbit anti-ICAM1 (179707, abcam), rabbit anti-VCAM1 (134047, abcam), and rabbit anti-β-actin (4970; Cell Signaling Technology). Immunoreactive bands were visualized by ECL. The images were taken by ChemiDoc MP (Bio-Rad) and analyzed using Image Lab 4.6 (Bio-Rad).

[6] = test system: retinal microglia; assay: Retinal microglia depletion by chow containing CSF1R inhibitor; assay type: in vivo; conditions: inhibitor-treated mice
Excerpt: The images of whole mount retinas were taken by a confocal microscopy (SP5 or SP8; Leica, Buffalo Grove, Ill., USA) or an epifluorescent microscopy (Axio Observer Z1; Carl Zeiss, Bayern, Germany). For microglial cell number counting, microglial cell bodies were manually counted based on the z-stack images. For microglial density evaluation, maximum intensity z-stack images were created and the images were processed with the smooth, the make binary, and the watershed tools. The area of particles was then calculated using the analyze particles tool, setting the size range to 5-1000. Amira 5 software (FEI, Hillsboro, Oreg., USA) was used to make 3D-reconstruction images.
Microglia depletion was performed using Cx3cr1^CreER×B6-iDTR (TG) mice or chow containing a small molecule CSFR1 inhibitor (Plexxikon Inc, Berkely, Calif., USA). To generate TG mice, Cx3cr1^CreER mice, which express Cre-ER fusion protein from endogenous CX3CR1 promoter enhance elements, were crossed with B6-iDTR mice, which contain a flox-STOP-flox diphtheria toxin receptor (DTR) in the ROSA26 locus. In this TG mice system, the Cre recombinase activation under the control of the Cx3cr1 promoter can be induced by tamoxifen, which leads to the surface expression of DTR on CX3CR1-expressing cells. […]

[7] = Lymph node and spleen weight in EAU; assay type: in vivo, C57BL/6 mice; conditions: day 21
[8] = test system: EAU; assay: Active immunization EAU, clinical and histopathological score; assay type: in vivo, C57BL/6 mice
[9] = test system: EAU; assay: Adoptive transfer EAU; assay type: in vivo, mice
Method: Adoptive transfer EAU was induced as previously described with brief modification. Briefly, donor mice were immunized as described above and the spleens and draining lymph nodes (LNs) were collected on day 14 post-immunization. Lymphocytes from spleens and draining LNs were culture in the presence of 10 μg/ml IRBP-p and 10 ng/ml IL-23 (R&D systems, Minneapolis, Minn.) for 72 hours in RPMI 1640 supplemented with 10% FBS (Gibco), 2 mM glutamine (Gibco), and 100 U/ml penicillin and 100 μg/ml streptomycin. The non-adherent cells in the entire suspension were transferred to new dishes on day one and two of culture. After 3 days, the activated lymphocytes were purified by gradient centrifugation on Histopaque 1083 and counted. The cells were injected i.p. in 0.2 ml of PBS into […] (5×10^7 cells/mouse). Fundus were observed using Micron IV (Phoenix, Pleasanton, Calif.) and clinical score was graded on a scale between 0-4 in half-point increments as described previously. For histological assessment, enucleated eyes were fixed in a buffer of 70% methanol and 30% acetic acid. The fixed tissues were embedded in paraffin and processed. Sections of 5 μm were cut and stained with H&E. The severity of EAU in each eye was scored on a scale between 0-4 in half-point increments, according to a semiquantitative system described previously.

[10] = test system: LN cells and SP cells; assay: Flow cytometric analysis of lymph nodes and spleens; assay type: in vivo, mice
Excerpt: Cervical, axillary, and inguinal lymph nodes (LNs) were harvested from naive mice and EAU mice fed with a small molecule CSFR1 inhibitor or control diet. Single cell suspensions (1×10^6 cells/sample) were blocked with anti-mouse CD16/32 mAb (eBioscience, San Diego, Calif.) and stained with cell surface antibodies. Dead cells were stained with LIVE/DEAD™ fixable dead cell stain kit (blue or violet) (ThermoFisher). The following anti-mouse antibodies were used for staining: CD4-FITC (clone: GK1.5), CD25-PE (PC61.5), Foxp3-PE-Cy7 (FJK-6s), CD11c-FITC (N418), CD11b-PE (M1/70), CD45-APC (30-F11), IFN-γ-PE (XMG1.2), and IL-17A-APC (eBio17B7) (All purchased from eBioscience). CD3-Pacific blue (17A2) was purchase from BioLegend (San Diego, Calif.). For CD45/CD11b/CD11c detection, the cells were subjected for analysis without fixation. For regulatory T cell (CD3/CD4/CD25/Foxp3) staining, after staining with the cell surface markers, the cells were fixed and permeabilized with the Foxp3 staining buffer kit (eBioscience) and stained with Foxp3-PE-Cy7. For Th1 and Th17 detection (CD3/CD4/IFN-γ/IL-17), single cell suspensions were stimulated for 4 hours with 50 ng/mL phorbal myristate acetate (PMA) and 500 ng/ml ionomysin in culture media (10% FBS, RPMI1640, penicillin, streptomycin, β-mercaptoethanol) in the presence of GolgiPlug™ (BD Biosciences). The cells were stained with CD3-PB, CD4-FITC, and Live/Dead blue then fixed and permeabilized using an intracellular fixation and permeabilization buffer set (eBioscience). The cells were next stained with IFN-γ-PE and IL-17-APC. Flow cytometric data were acquired on a LSR II (BD Biosciences). Acquired data was analyzed using FlowJo 10.1 ( ).

[11] = Behavior and health observation on supplemented diet; assay type: in vivo, mice; conditions: chow containing 1200 p.p.m
Method: Microglia depletion was performed using Cx3cr1^CreER×B6-iDTR (TG) mice or chow containing a small molecule CSFR1 inhibitor (Plexxikon Inc, Berkely, Calif., USA). To generate TG mice, Cx3cr1^CreER mice, which express Cre-ER fusion protein from endogenous CX3CR1 promoter enhance elements, were crossed with B6-iDTR mice, which contain a flox-STOP-flox diphtheria toxin receptor (DTR) in the ROSA26 locus. In this TG mice system, the Cre recombinase activation under the control of the Cx3cr1 promoter can be induced by tamoxifen, which leads to the surface expression of DTR on CX3CR1-expressing cells. The activation of Cre recombinase was induced by 5 consecutive days of tamoxifen administration via eye drops (10 μl/drop of 5 mg/ml in corn oil) three times a day at 6 weeks old. Then diphtheria toxin (DTX) (Sigma-Aldrich) was administered into the anterior chamber (a.c.) (25 ng in 1 μl of saline) to deplete CX3CR1-expressing. The control mice were given saline (a.c.). For microglia depletion using a small molecule CSFR1 inhibitor, mice were fed the control chow (AIN-76) or the chow containing 1200 p.p.m of the CSF1R inhibitor PLX 5622 one week prior to RD creation.

[12] = test system: VCAM-1; assay: Western blot of retinal VCAM-1; assay type: in vivo, mice; conditions: EAU day 14
Method: as §1

[13] = test system: EAU; assay: EAU in Cx3cr1CreER x B6-iDTR mice given tamoxifen alone; assay type: in vivo; conditions: day 21; for clinical EAU score: tamoxifen alone, systemically via i.p. injection

behavioral or health problems [11]: No obvious behavioral or health problems
Structure (SMILES): COc1ncc(F)cc1CNc1ccc(Cc2c[nH]c3ncc(C)cc23)c(F)n1 [a small molecule CSFR1 inhibitor]
levels of adherent cells vs naïve mice [1]: similar
number of adherent cells vs control EAU mice [1]: significantly fewer
delayed hypersensitivity (DH) response, ear swelling [2]: did not affect
effect on circulating systemic immune cells [3]: minimal effect
lymphocyte proliferation [4]: did not affect
retinal ICAM-1 protein expression vs naïve retina [5]: significantly higher
degree of microglia depletion [6]: 100%
lymph node (LN) weight [7]: does not change; also recorded: neither parameter was affected
spleen weight [7]: does not change; also recorded: neither parameter was affected
clinical EAU score (development of EAU) ([8]; diet 1200 ppm started day -7, through day 21, p<0.001): suppresses EAU; also recorded: completely suppressed
clinical EAU score ([8]; diet started day 0, until 28 days after EAU induction): effectively suppressed
clinical EAU score ([8]; diet started day 7): partially suppressed
severity of EAU (clinical score) ([8]; diet started day 14): comparable to that of control mice
animals developing EAU ([8]; diet started day -7, by day 28, mild EAU, n=7): Only one animal
histological score ([8]; diet started day -7, day 21, p<0.01): suppressed EAU induction
severity of EAU in recipients (uveitogenicity of donor lymphocytes) ([9]; inhibitor given to donor mice 7 days prior to EAU induction, recipients on regular diet): did not affect the severity of EAU; also recorded: does not significantly suppress
EAU response (clinical and histopathological score) ([9]; inhibitor given to recipient mice 7 days prior to cell transfer): suppressed; also recorded: suppresses EAU
frequency of CD3+CD4+ T cells positive for IFN-γ+ or IL-17+ ([10]; LNs and spleens, day 14): does not suppress; also recorded: did not significantly change
frequency of regulatory T cells (CD4+CD25+Foxp3+) ([10]; LNs and spleens, day 14): did not increase
CD11c+CD11b+ cells ([10]; both LNs and splenic cells, day 14 of EAU, vs control-fed): suppresses; also recorded: decreased
retinal VCAM-1 expression [12]: unaffected

Structure (SMILES): CC/C(=C(\c1ccccc1)c1ccc(OCCN(C)C)cc1)c1ccccc1 [tamoxifen]
clinical EAU score [13]: significantly suppressed
clinical EAU score ([13]; listed as Tamoxifen): suppresses EAU
EAU severity (clinical EAU score) ([13]; tamoxifen topical via eye drops): did not significantly affect
